{"source": "patent US20250295826A1", "about": "“[…] UREASE INHIBITORS” (Symrise AG, priority 2022, published 2025)"}
{"system": "urease", "experiment": "Application in cat litter: ammonia formation from artificial cat urine (headspace sampling)", "conditions": "litter coated with 0.1% (w/w) active material; artificial cat urine with urea and urease; headspace ammonia over 5 days; negative control = 100", "experimental": "The efficiency of reducing ammonia formation in cat litter was tested with different fragrance raw materials that are shown in the table below (table 3).\nIn brief, the litter was coated with a final concentration of 0.1% (w/w) of active material respective to the dry litter material. In a glass bottle with a total volume of 5 l, the litter is treated with artificial cat urine that consists of an aqueous salt solution containing urea and urease. The development of ammonia is measured through headspace sampling with an ammonia sensitive detector over a period of 5 days.", "units": {"Relative ammonia formation in %": "%"}}
{"smiles": "CC/C=C\\CCOC(=O)c1ccccc1O", "note": "[HEXENYL […]-3, cis-3-hexenyl salicylate]", "Relative ammonia formation in %": 65}
{"smiles": "CC/C=C\\CCOC(C)OCC", "note": "(stereo not drawn) [LEAF ACETAL, cis-1-(1-Ethoxyethoxy)-3-hexene]", "Relative ammonia formation in %": 81}
{"smiles": "CCC/C=C/C=O", "note": "[HEXENAL TRANS-2, trans-2-hexenal]", "Relative ammonia formation in %": 32}
{"smiles": "CC/C=C\\CCOC(=O)CCC", "note": "[HEXENYL BUTYRATE CIS-3, cis-3-hexenyl butyrate]", "Relative ammonia formation in %": 65}
{"system": "urease", "experiment": "Screening of urease inhibition (colorimetric Phenol Red assay, 96 well plates)", "format": "biochemical", "conditions": "Table 2; fraction vs negative control; additive 0.1 w/w, urea 0.2% w/w, urease 0.5 U/ml, 1 h", "experimental": "(§1) Urease catalyzed ammonia formation leads to a change in pH (alkalization). […] The enzymatic screening assay is described below. The colorimetric assay is conducted in 96 well plates in combination with a microplate spectrophotometer with Phenol Red as pH sensitive indicator.\n(§2) In brief: the substrate urea, the fragrance raw material and the urease are mixed in the wells and the change in absorption at 560 nm is monitored for 1 h. The resulting absorbance curves are compared to untreated samples (negative controls, without inhibitors) and samples with commercially available NBPT inhibitor (positive control)."}
{"smiles": "CCCCNP(N)(N)=S", "note": "[NBPT, reference compound]", "Inhibition": 1.00}
{"system": "urease", "experiment": "Screening of urease inhibition (colorimetric Phenol Red assay, 96 well plates)", "format": "biochemical", "conditions": "additive 0.1 w/w, urea 0.2% w/w, urease 0.5 U/ml, PBS pH 7.4, monitored 1 h", "experimental": "as §1, §2"}
{"smiles": "CCCCNP(N)(N)=S", "note": "[NBPT, reference compound]", "Δ Absorbance at 1 h (560 nm)": 0.00}
{"system": "urease", "experiment": "Screening of urease inhibition (colorimetric Phenol Red assay, 96 well plates)", "format": "biochemical", "conditions": "positive hits table; fraction vs negative control; additive 0.1 w/w, urea 0.2% w/w, urease 0.5 U/ml, 1 h", "experimental": "as §1, §2"}
{"smiles": "COc1ccccc1O", "note": "[GUAIACOL, 2-Methoxyphenol]", "Inhibition": 0.718}
{"smiles": "C/C=C/C(=O)C1=C(C)C=CCC1(C)C", "note": "[D[…], (E)-1-(2,6,6-trimethyl-1-cyclohexa-1,3-dienyl)but-2-en-1-one]", "Inhibition": 0.985}
{"smiles": "CC/C=C\\CCOC(=O)c1ccccc1O", "note": "[HEXENYL […]-3, cis-3-hexenyl salicylate]", "Inhibition": 0.989}
{"smiles": "CC/C=C\\CCOC(C)OCC", "note": "(stereo not drawn) [LEAF ACETAL, cis-1-(1-Ethoxyethoxy)-3-hexene]", "Inhibition": 0.964}
{"smiles": "CC/C=C\\CCOC(=O)C(C)C", "note": "[HEXENYL I[…]-3, cis-3-hexenyl isobutyrate]", "Inhibition": 0.865}
{"smiles": "C/C=C/C(=O)C1C(C)=CCCC1(C)C", "note": "(stereo not drawn) [DAMASCONE ALPHA, (E)-1-(2,6,6-trimethyl-1-cyclohex-2-enyl)but-2-en-1-one]", "Inhibition": 0.991}
{"smiles": "CCC(=O)/C=C/C1C(C)=CCCC1(C)C", "note": "(stereo not drawn) [METHYL IONONE ALPHA/IFF, methyl ionone alpha]", "Inhibition": 0.936}
{"smiles": "CC/C=C\\CCO", "note": "[HEXENOL CIS-3, cis-3-hexenol]", "Inhibition": 0.888}
{"smiles": "CCC/C=C/C=O", "note": "[HEXENAL TRANS-2, trans-2-hexenal]", "Inhibition": 0.961}
{"smiles": "CC1=C(O)C(=O)C(C)O1", "note": "(stereo not drawn) [FURANEOL, 4-Hydroxy-2,5-dimethyl-3-furanone]", "Inhibition": 0.985}
{"smiles": "CC(C)=CCC/C(C)=C\\CO", "note": "[NEROL 900, (2Z)-3,7-dimethylocta-2,6-dien-1-ol]", "Inhibition": 0.758}
{"smiles": "CCC/C=C/CO", "note": "[HEXENOL TRANS-2, trans-2-hexenol]", "Inhibition": 0.912}
{"smiles": "OC/C=C/c1ccccc1", "note": "[CINNAMIC ALCOHOL, (2E)-3-phenylprop-2-en-1-ol]", "Inhibition": 0.931}
{"smiles": "CC/C=C\\CCOC(=O)CC(C)C", "note": "[HEXENYL I[…]-3, cis-3-hexenyl isovalerate]", "Inhibition": 0.724}
{"smiles": "CC/C=C\\CCOC(C)=O", "note": "[HEXENYL ACETATE CIS-3, cis-3-hexenyl acetate]", "Inhibition": 0.723}
{"smiles": "CC/C=C\\CC/C=C/CO", "note": "[NONADIENOL-2,6, 2,6-nonadien-1-ol]", "Inhibition": 0.885}
{"smiles": "CC/C=C\\CCOC(=O)CCC", "note": "[HEXENYL BUTYRATE CIS-3, cis-3-hexenyl butyrate]", "Inhibition": 0.999}
{"smiles": "Cc1ccc2c(c1)OC(=O)C2C", "note": "(stereo not drawn) [FURAMINTON/TONKALACTONE ™, dimethyl-3,6-benzo-2(3H)-furanone]", "Inhibition": 0.669}
{"smiles": "CC(=O)/C(C)=C/C1C(C)=CCCC1(C)C", "note": "(stereo not drawn) [METHYL IONONE GAMMA PURE/IFF, methyl ionone gamma]", "Inhibition": 0.942}
{"smiles": "CC/C=C\\CCOC(=O)CC", "note": "[HEXENYL […]-3, cis-3-hexenyl propionate]", "Inhibition": 0.956}
{"smiles": "CC/C=C\\CCOC(=O)CCCCC", "note": "[HEXENYL CAPROATE CIS-3, cis-3-hexenyl hexanoate]", "Inhibition": 0.824}
{"smiles": "C=CCc1ccc(O)c(OC)c1", "note": "[EUGENOL NAT., 2-Methoxy-4-(prop-2-en-1-yl)phenol]", "Inhibition": 0.908}
{"smiles": "CC(C)=CCC/C(C)=C/CO", "note": "[GERANIOL 60 B, 2,6-Octadien-1-ol 3,7-dimethyl]", "Inhibition": 0.910}
{"smiles": "CCOc1cc(C)ccc1O", "note": "[2-ethoxy-4-methylphenol]", "Inhibition": 0.786}
